# Like-named read-outs stand apart in the source and are kept apart here.
# How the values were obtained:
# [1] = system: small cell lung cancer H526; experiment: in vitro cytotoxicity, PrestoBlue assay; type: cell-based, human; conditions: read-out: IC50 H526
# [2] = system: human lymphoblastic leukemia cell line (CCRF-CEM); experiment: in vitro cytotoxicity, PrestoBlue assay; type: cell-based; conditions: read-out: IC50 CCRF-CEM
# Method: (§1) All representative compounds of Formulae (I-A) and (I-B) were first evaluated for their in vitro cytotoxicity to human lymphoblastic leukemia cell line (CCRF-CEM) and its vinblastine-resistant sub-cell line (CCRF-CEM/VBL) (see Table 1).
# (§2) After a 72-hr incubation in various concentrations of the newly synthesized compounds, the cytotoxic effects of them to all cell lines were determined by the PrestoBlue®(Invitrogen) assay using a microplate spectrophotometer. Briefly, at the end of treatment, an aliquot of PrestoBlue® solution was added and then cells were incubated at 37° C. for 1-2 hr. The absorbance at 570 and 600 nm was measured with a microplate reader. […] The ICso is defined by the concentration required to inhibit tumor cell growth by 50%. Data represent the mean±STDEV of three to six independent experiments for each compound.
# [3] = system: vinblastine-resistant sub-cell line (CCRF-CEM/VBL); experiment: in vitro cytotoxicity, PrestoBlue assay; type: cell-based, human; conditions: for IC50: read-out: IC50 CEM/VBL; for resistance factor (IC50 CEM/VBL vs IC50 of the parent cell line): number in brackets
# Method: as §1, §2
# pancreatic cancer PacaS1 = experiment: in vitro cytotoxicity, PrestoBlue assay; type: cell-based, human; conditions: Table 2
# Method: as §1, §2
# colon cancer HCT-116 = experiment: in vitro cytotoxicity, PrestoBlue assay; type: cell-based, human; conditions: Table 2
# Method: as §1, §2
# [4] = system: non-small cell lung cancer H460; experiment: in vitro cytotoxicity, PrestoBlue assay; type: cell-based, human; conditions: Table 2
# Method: as §1, §2
# H146 = experiment: in vitro cytotoxicity to SCLC cells; type: cell-based, human; conditions: Table 3
# Method: as §2
# H1417 = experiment: in vitro cytotoxicity to SCLC cells; type: cell-based, human; conditions: Table 3
# Method: as §2
# H82 = experiment: in vitro cytotoxicity to SCLC cells; type: cell-based, human; conditions: Table 3
# Method: as §2
# H211 = experiment: in vitro cytotoxicity to SCLC cells; type: cell-based, human; conditions: Table 3
# Method: as §2
# pEGFP-N1 plasmid DNA = experiment: DNA cross-linking, alkaline agarose gel electrophoresis; type: biochemical; conditions: 1-20 μM, 37° C., 2 hrs; FIG. 1
# Method: In the present example, BO-2590, BO-2577 (Formula I-A) and BO-2698, BO-2755, BO-2762 and BO-2768 (Formula I-B) were tested for their DNA crosslinking activity, in which the cross-linking was analyzed by alkaline agarose gel electrophoresis. In brief, purified pEGFP-N1 plasmid DNA (1,500 ng) was mixed with various concentrations (1-20 μM) of the tested compounds in 40 μL binding buffer (3 mM sodium chloride/1 mM sodium phosphate, pH 7.4, and 1 mM EDTA). The reaction mixture was incubated at 37° C. for 2 hrs. At the end of reaction, the plasmid DNA was linearized by digestion with BamHI and followed by precipitation with ethanol. The DNA pellets were dissolved and denatured in alkaline buffer (0.5 N NaOH-10mM EDTA). An aliquot of 20 μL of DNA solution (1,000 ng) was mixed with 4 μL of 6× alkaline loading dye and then electrophoretically resolved on a 0.8% alkaline agarose gel with NaOH-EDTA buffer at 4° C. The electrophoresis was carried out at 18V for 22 h. After staining the gels with an ethidium bromide solution, the DNA was visualized under UV light. Results are illustrated in FIG. 1.
# [5] = 72-hr incubation, mean ± STDEV of three to six experiments
# [6] = Homo sapiens, CCRF-CEM, footnote d: IC50 values in nM
SMILES,"IC50 [2, 5] [nM]","IC50 [3, 5] [nM]",resistance factor (IC50 CEM/VBL vs IC50 of the parent cell line) [3] [×],IC50 (H146) [µM],IC50 (H1417) [µM],IC50 (H211) [µM],IC50 ([1]; Table 3) [µM],other results
"Cc1c(CO)c(CO)c2c3ccccc3c(N3CCOCC3)nn12 [BO-2571, (3-Methyl-6-morpholinopyrrolo[2,1-α]phthalazine-1,2-diyl)dimethanol]",760 ± 30,560 ± 60,0.74,,,,,IC50 ([1]; Table 2): 0.1 ± 0.01 µM; IC50 Paca SI (pancreatic cancer PacaS1): 2.16 ± 0.09 µM; IC50 (colon cancer HCT-116): 1.67 ± 0.18 µM; IC50 [4]: 2.64 ± 0.52 µM
"CCNC(=O)OCc1c(COC(=O)NCC)c2c3ccccc3c(N3CCOCC3)nn2c1C [BO-2573, (3-Methyl-6-morpholinopyrrolo[2,1-a]phthalazine-1,2-diyl)bis(methylene)bis(ethylcarbamate)]",690 ± 220,450 ± 30,0.65,,,,,IC50 ([1]; Table 2): 0.21 ± 0.03 µM; IC50 Paca SI (pancreatic cancer PacaS1): 17.23 ± 3.48 µM; IC50 (colon cancer HCT-116): 1.7 ± 0.21 µM; IC50 [4]: 2.48 ± 0.73 µM
Cc1c(COC(=O)NC(C)C)c(COC(=O)NC(C)C)c2c3ccccc3c(N3CCOCC3)nn12 [BO-2574],1170 ± 180,960 ± 160,0.82,,,,,
CCNC(=O)OCc1c(COC(=O)NCC)c2c3ccccc3c(N3CCOCC3)nn2c1CC [BO-2625],3440 ± 820,5110 ± 910,1.48,,,,,
CCc1c(COC(=O)NC(C)C)c(COC(=O)NC(C)C)c2c3ccccc3c(N3CCOCC3)nn12 [BO-2626],3680 ± 250,1580 ± 200,0.43,,,,,
COc1ccc(-c2c(CO)c(CO)c3c4ccccc4c(N4CCOCC4)nn23)cc1 [BO-2629],6630 ± 1740,5750 ± 620,0.86,,,,,IC50 ([1]; Table 2): 1.95 ± 0.26 µM; IC50 Paca SI (pancreatic cancer PacaS1): 36.63 ± 1.04 µM; IC50 (colon cancer HCT-116): 5.2 ± 0.43 µM; IC50 [4]: 18.7 ± 1.81 µM
CCNC(=O)OCc1c(COC(=O)NCC)c2c3ccccc3c(N3CCOCC3)nn2c1-c1ccc(OC)cc1 [BO-2630],6120 ± 880,7210 ± 250,1.18,,,,,
COc1ccc(-c2c(COC(=O)NC(C)C)c(COC(=O)NC(C)C)c3c4ccccc4c(N4CCOCC4)nn23)cc1 [BO-2631],2850 ± 1520,3070 ± 430,1.07,,,,,
Cc1c(CO)c(CO)c2c3cc4ccccc4cc3c(N3CCOCC3)nn12 [BO-2698],380 ± 50,330 ± 30,0.86,1.02 ± 0.16,0.37 ± 0.01,0.22 ± 0.07,0.09 ± 0.06,IC50 (H82): 0.4 ± 0.16 µM; IC50 ([1]; Table 2): 0.04 ± 0.01 µM; formation of DNA interstrand crosslinks (pEGFP-N1 plasmid DNA): induced DNA interstrand crosslinks; IC50 Paca SI (pancreatic cancer PacaS1): 0.88 ± 0.26 µM; IC50 (colon cancer HCT-116): 1.13 ± 0.02 µM; IC50 [4]: 1.18 ± 0.1 µM
Cc1c(COC(=O)NC(C)C)c(COC(=O)NC(C)C)c2c3ccccc3c(N3CCCC3)nn12 [BO-2717],4110 ± 150,3160 ± 180,0.77,,,,,
Cc1c(CO)c(CO)c2c3ccccc3c(N3CCCCC3)nn12 [BO-2720],1040 ± 120,1330 ± 130,1.28,,,,,
CCNC(=O)OCc1c(COC(=O)NCC)c2c3ccccc3c(N3CCCCC3)nn2c1C [BO-2721],1280 ± 90,1230 ± 200,0.96,,,,,
Cc1c(COC(=O)NC(C)C)c(COC(=O)NC(C)C)c2c3ccccc3c(N3CCCCC3)nn12 [BO-2722],1920 ± 110,1730 ± 90,0.90,,,,,
Cc1c(CO)c(CO)c2c3cc4ccccc4cc3c(N3CCCCC3)nn12 [BO-2755],800 ± 90,1010 ± 110,1.26,2.65 ± 1.39,1.37 ± 0.03,0.8 ± 0.33,0.22 ± 0.06,IC50 (H82): 1.48 ± 0.66 µM; IC50 ([1]; Table 2): 0.12 ± 0.04 µM; formation of DNA interstrand crosslinks (pEGFP-N1 plasmid DNA): induced DNA interstrand crosslinks; IC50 Paca SI (pancreatic cancer PacaS1): 10.01 ± 1.64 µM; IC50 (colon cancer HCT-116): 4.13 ± 0.27 µM; IC50 [4]: 3.03 ± 0.48 µM
CCNC(=O)OCc1c(COC(=O)NCC)c2c3cc4ccccc4cc3c(N3CCOCC3)nn2c1C [BO-2756],310 ± 20,320 ± 40,1.03,1.51 ± 0.83,0.81 ± 0.02,0.13 ± 0.1,0.15 ± 0.087,IC50 (H82): 0.74 ± 0.39 µM
CCNC(=O)OCc1c(COC(=O)NCC)c2c3cc4ccccc4cc3c(N3CCCCC3)nn2c1C [BO-2757],950 ± 50,1200 ± 140,1.26,4.19 ± 0.7,3.94 ± 0.11,1.03 ± 0.25,0.54 ± 0.18,IC50 (H82): 1.58 ± 0.01 µM
"CCNC(=O)OCc1c(COC(=O)NCC)c2c3cc4ccccc4cc3c(N3CCCC3)nn2c1C [BO-2763, (3-Methyl-6-(pyrrolidin-1-yl)benzo[g]pyrrolo[2,1-α]phthalazine-1,2-diyl)-bis(methylene) bis(ethylcarbamate)]",420 ± 70,250 ± 60,0.59,2.16 ± 0.5,1.15 ± 0.15,0.68 ± 0.59,0.18 ± 0.06,IC50 (H82): 1.58 ± 1.37 µM
"CCNC(=O)OCc1c(COC(=O)NCC)c2c3cc4ccccc4cc3c(N(C)C)nn2c1C [BO-2772, (6-(Dimethylamino)-3-methylbenzo[g]pyrrolo[2,1-α]phthalazine-1,2-diyl)-bis(methylene) bis(ethylcarbamate)]",138 ± 8,99 ± 6,0.71,1.67 ± 0.24,1.01 ± 0.49,0.32 ± 0.2,0.27 ± 0.31,IC50 (H82): 0.52 ± 0.16 µM
Cc1c(CO)c(CO)c2c3ccccc3c(N(C)C)nn12 [BO-2785],3330 ± 390,2940 ± 260,0.88,,,,,
CCNC(=O)OCc1c(COC(=O)NCC)c2c3ccccc3c(N(C)C)nn2c1C [BO-2786],730 ± 50,550 ± 60,0.75,,,,,IC50 ([1]; Table 2): 0.57 ± 0.09 µM; IC50 Paca SI (pancreatic cancer PacaS1): 8.01 ± 1.40 µM; IC50 (colon cancer HCT-116): 2.45 ± 0.65 µM; IC50 [4]: 3.47 ± 0.47 µM
Cc1c(COC(=O)NC(C)C)c(COC(=O)NC(C)C)c2c3ccccc3c(N(C)C)nn12 [BO-2787],1540 ± 220,970 ± 170,0.63,,,,,
CCNC(=O)OCc1c(COC(=O)NCC)c2c3cc4ccccc4cc3c(N3CCC(N4CCCCC4)CC3)nn2c1C [BO-2793],57 ± 4,104 ± 28,1.82,0.31 ± 0.21,0.13 ± 0.09,0.06 ± 0.02,0.01 ± 0.003,IC50 (H82): 0.09 ± 0.04 µM
"N.N.O=C([O-])C1(C(=O)[O-])CCC1.[Pt+2] [Carboplatin, reference compound]",,,,37.1 ± 6.38,8.64 ± 1.93,13.9 ± 1.56,6.43 ± 0.14,
"COc1cc([C@@H]2c3cc4c(cc3[C@@H](O[C@@H]3O[C@@H]5CO[C@@H](C)O[C@H]5[C@H](O)[C@H]3O)[C@H]3COC(=O)[C@H]23)OCO4)cc(OC)c1O [Etoposide, reference compound]",,,,,,,,"IC50 (H146; Homo sapiens, NCI-H146): 2.91 ± 0.17 µM; IC50 (H1417; Homo sapiens, NCI-H1417): 4.53 ± 3.18 µM; IC50 (H82; Homo sapiens, NCI-H82): 1.08 ± 0.42 µM; IC50 (H211; Homo sapiens, NCI-H211): 0.07 ± 0.01 µM; IC50 ([1]; Homo sapiens, NCI-H526, Table 3): 0.2 ± 0.26 µM"
"CC[C@]1(O)C[C@@H]2CN(CCc3c([nH]c4ccccc34)[C@@](C(=O)OC)(c3cc4c(cc3OC)N(C)[C@H]3[C@@](O)(C(=O)OC)[C@H](OC(C)=O)[C@]5(CC)C=CCN6CC[C@]43[C@@H]65)C2)C1 [Vinblastine, reference compound]",,,278.3,,,,,"IC50 [2, 6]: 1.41 ± 0.1 nM; IC50 [3, 6]: 392 ± 44.8 nM"

# — patent US11066412B2, “Substituted pyrrolo[2,1-a]phthalazines and benzo[g]pyrrolo[2,1-a]phthalazines for the treatment of cancer” (Academia Sinica, priority 2017, dated 2021)
